The structures appear in SMILES notation. Counter-ions that a name gives are not always drawn.

The test system of one series is MV4-11 cells. Description: MV4-11 Cytotoxicity Assay. Type of series: cell-based, human. To be noted: 72 hr, CCK-8; read-out: MV4-11 cytotoxicity.
Turning to `CCc1cc(-c2nnc(C(N)=O)n2-c2ccc(CN3CCN(CC4CCN(C(=O)C[C@@H]5N=C(c6ccc(Cl)cc6)c6c(sc(C)c6C)-n6c(C)nnc65)CC4)CC3)cc2)c(O)cc1O` [Compound 121, (S)-4-(4-((4-((1-(2-(4-(4-chlorophenyl)-2,3,9-trimethyl-6H-thieno[3,2-f][1,2,4]triazolo[4,3-a][1,4]diazepin-6-yl)acetyl)piperidin-4-yl)methyl)piperazin-1-yl)methyl)phenyl)-5-(5-ethyl-2,4-dihydroxyphenyl)-4H-1,2,4-triazole-3-carboxamide hydrochloride], the IC50 was under 100 nM.

The same series, now with this note: Homo sapiens, MV4-11; 72 hr, CCK-8; read-out: MV4-11 cytotoxicity.
For the molecule `Cc1sc2c(c1C)C(c1ccc(Cl)cc1)=N[C@@H](CC(=O)NCCOc1cccc(CN(C)Cc3ccc(-n4c(O)nnc4-c4cc(C(C)C)c(O)cc4O)cc3)c1)c1nnc(C)n1-2` [Compound 50, 2-((6S)-4-(4-chlorophenyl)-2,3,9-trimethyl-6H-thieno[3,2-f][1,2,4]triazolo[4,3-a][1,4]diazepin-6-yl)-N-(2-(3-(((4-(3-(2,4-dihydroxy-5-isopropylphenyl)-5-hydroxy-4H-1,2,4-triazol-4-yl)benzyl)(methyl)amino)methyl)phenoxy)ethyl)acetamide, trifluoroacetic acid, trifluoroacetic acid, trifluoroacetic acid, trifluoroacetic …], the IC50 is under 100 nM.

Take `Cc1sc2c(c1C)C(c1ccc(Cl)cc1)=N[C@@H](CC(=O)NCCOCCOCCOc1ccc(-n3c(S)nnc3-c3cc(C(C)C)c(O)cc3O)cc1)c1nnc(C)n1-2` [Compound 34, (S)-2-(4-(4-chlorophenyl)-2,3,9-trimethyl-6H-thieno[3,2-f][1,2,4]triazolo[4,3-a][1,4]diazepin-6-yl)-N-(2-(2-(2-(4-(3-(2,4-dihydroxy-5-isopropylphenyl)-5-mercapto-4H-1,2,4-triazol-4-yl)phenoxy)ethoxy)ethoxy)ethyl)acetamide]: the IC50 lay within 100 to 1000 nM.

In the case of `Cc1sc2c(c1C)C(c1ccc(Cl)cc1)=N[C@@H](CC(=O)N1CCC(CN3CCN(Cc4ccc(-n5c(O)nnc5-c5cc(C(C)C)c(O)cc5O)cc4)CC3)CC1)c1nnc(C)n1-2` [Compound 103, (S)-2-(4-(4-chlorophenyl)-2,3,9-trimethyl-6H-thieno[3,2-f][1,2,4]triazolo[4,3-a][1,4]diazepin-6-yl)-1-(4-((4-(4-(3-(2,4-dihydroxy-5-isopropylphenyl)-5-hydroxy-4H-1,2,4-triazol-4-yl)benzyl)piperazin-1-yl)methyl)piperidin-1-yl)ethan-1-one acetate], the IC50 was under 100 nM.

`Cc1sc2c(c1C)C(c1ccc(Cl)cc1)=N[C@@H](CC(=O)NCC1CCN(C(=O)C3CCN(Cc4ccc(-n5c(O)nnc5-c5cc(C(C)C)c(O)cc5O)cc4)CC3)CC1)c1nnc(C)n1-2` [Compound 53, (S)-2-(4-(4-chlorophenyl)-2,3,9-trimethyl-6H-thieno[3,2-f][1,2,4]triazolo[4,3-a][1,4]diazepin-6-yl)-N-((1-(1-(4-(3-(2,4-dihydroxy-5-isopropylphenyl)-5-hydroxy-4H-1,2,4-triazol-4-yl)benzyl)piperidine-4-carbonyl)piperidin-4-yl)methyl)acetamide, trifluoroacetic acid]: the IC50 is under 100 nM.

As for `Cc1sc2c(c1C)C(c1ccc(Cl)cc1)=N[C@@H](CC(=O)N1CCC(CN3CCN(Cc4ccc(-n5c(C(=O)NCC(F)(F)F)nnc5-c5cc(C(C)C)c(O)cc5O)cc4)CC3)CC1)c1nnc(C)n1-2` [Compound 13, 4-(4-((4-((1-(2-((6S)-4-(4-chlorophenyl)-2,3,9-trimethyl-6H-thieno[3,2-f][1,2,4]triazolo[4,3-a][1,4]diazepin-6-yl)acetyl)piperidin-4-yl)methyl)piperazin-1-yl)methyl)phenyl)-5-(2,4-dihydroxy-5-isopropylphenyl)-N-(2,2,2-trifluoroethyl)-4H-1,2,4-triazole-3-carboxamide], the IC50 is under 100 nM.

On to `Cc1sc2c(c1C)C(c1ccc(Cl)cc1)=N[C@@H](CC(=O)NCCc1ccc(CN3CCC(Cc4ccc(-n5c(C(=O)NCC(F)(F)F)nnc5-c5cc(C(C)C)c(O)cc5O)cc4)CC3)cc1)c1nnc(C)n1-2` [Compound 95, (S)-4-(4-((1-(4-(2-(2-(4-(4-chlorophenyl)-2,3,9-trimethyl-6H-thieno[3,2-f][1,2,4]triazolo[4,3-a][1,4]diazepin-6-yl)acetamido)ethyl)benzyl)piperidin-4-yl)methyl)phenyl)-5-(2,4-dihydroxy-5-isopropylphenyl)-N-(2,2,2-trifluoroethyl)-4H-1,2,4-triazole-3-carboxamide, trifluoroacetic acid], for which the IC50 is under 100 nM.

Regarding `Cc1sc2c(c1C)C(c1ccc(Cl)cc1)=N[C@@H](CC(=O)NCCOCc1ccc(-n3c(O)nnc3-c3cc(C(C)C)c(O)cc3O)cc1)c1nnc(C)n1-2` [Compound 52, 2-((6S)-4-(4-chlorophenyl)-2,3,9-trimethyl-6H-thieno[3,2-f][1,2,4]triazolo[4,3-a][1,4]diazepin-6-yl)-N-(2-((4-(3-(2,4-dihydroxy-5-isopropylphenyl)-5-hydroxy-4H-1,2,4-triazol-4-yl)benzyl)oxy)ethyl)acetamide], the IC50 fell in the range of 100 to 1000 nM.

On to `Cc1sc2c(c1C)C(c1ccc(Cl)cc1)=N[C@@H](CC(=O)NCCOCCN1CCC(Cc3ccc(-n4c(O)nnc4-c4cc(C(C)C)c(O)cc4O)cc3)CC1)c1nnc(C)n1-2` [Compound 37, 2-((6S)-4-(4-chlorophenyl)-2,3,9-trimethyl-6H-thieno[3,2-f][1,2,4]triazolo[4,3-a][1,4]diazepin-6-yl)-N-(2-(2-(4-(4-(3-(2,4-dihydroxy-5-isopropylphenyl)-5-hydroxy-4H-1,2,4-triazol-4-yl)benzyl)piperidin-1-yl)ethoxy)ethyl)acetamide, trifluoroacetic acid], for which the IC50 was in the range of 100 to 1000 nM.

For `Cc1sc2c(c1C)C(c1ccc(Cl)cc1)=N[C@@H](CC(=O)N1CCC(N3CCN(c4ccc(-n5c(O)nnc5-c5cc(C(C)C)c(O)cc5O)cc4)CC3)CC1)c1nnc(C)n1-2` [Compound 43, 2-((6S)-4-(4-chlorophenyl)-2,3,9-trimethyl-6H-thieno[3,2-f][1,2,4]triazolo[4,3-a][1,4]diazepin-6-yl)-1-(4-(4-(4-(3-(2,4-dihydroxy-5-isopropylphenyl)-5-hydroxy-4H-1,2,4-triazol-4-yl)phenyl)piperazin-1-yl)piperidin-1-yl)ethanone, trifluoroacetic acid], the IC50 is under 100 nM.

Consider `CCc1cc(-c2nnc(O)n2-c2ccc(CC3CCN(CC4CCN(C(=O)C[C@@H]5N=C(c6ccc(Cl)cc6)c6c(sc(C)c6C)-n6c(C)nnc65)CC4)CC3)cc2)c(O)cc1O` [Compound 88, (S)-2-(4-(4-chlorophenyl)-2,3,9-trimethyl-6H-thieno[3,2-f][1,2,4]triazolo[4,3-a][1,4]diazepin-6-yl)-1-(4-((4-(4-(3-(5-ethyl-2,4-dihydroxyphenyl)-5-hydroxy-4H-1,2,4-triazol-4-yl)benzyl)piperidin-1-yl)methyl)piperidin-1-yl)ethan-1-one, formic acid], for which the IC50 is under 100 nM.

Take `CCNC(=O)c1noc(-c2cc(C(C)C)c(O)cc2O)c1-c1ccc(CN2CCN(CC3CCN(C(=O)C[C@@H]4N=C(c5ccc(Cl)cc5)c5c(sc(C)c5C)-n5c(C)nnc54)CC3)CC2)cc1` [Compound 126, (S)-4-(4-((4-((1-(2-(4-(4-chlorophenyl)-2,3,9-trimethyl-6H-thieno[3,2-f][1,2,4]triazolo[4,3-a][1,4]diazepin-6-yl)acetyl)piperidin-4-yl)methyl)piperazin-1-yl)methyl)phenyl)-5-(2,4-dihydroxy-5-isopropylphenyl)-N-ethylisoxazole-3-carboxamide hydrochloride]: the IC50 was under 100 nM.

Consider `Cc1sc2c(c1C)C(c1ccc(Cl)cc1)=N[C@@H](CC(=O)N[C@H](C)c1cccc(CN3CCC(Cc4ccc(-n5c(C(=O)NCC(F)(F)F)nnc5-c5cc(C(C)C)c(O)cc5O)cc4)CC3)c1)c1nnc(C)n1-2` [Compound 97, 4-(4-((1-(3-((R)-1-(2-((S)-4-(4-chlorophenyl)-2,3,9-trimethyl-6H-thieno[3,2-f][1,2,4]triazolo[4,3-a][1,4]diazepin-6-yl)acetamido)ethyl)benzyl)piperidin-4-yl)methyl)phenyl)-5-(2,4-dihydroxy-5-isopropylphenyl)-N-(2,2,2-trifluoroethyl)-4H-1,2,4-triazole-3-carboxamide, trifluoroacetic acid], for which the IC50 is under 100 nM.

As to `CCc1cc(-c2nnc(C(=O)NC(C)C)n2-c2ccc(CN3CCN(CC4CCN(C(=O)C[C@@H]5N=C(c6ccc(Cl)cc6)c6c(sc(C)c6C)-n6c(C)nnc65)CC4)CC3)cc2)c(O)cc1O` [Compound 105, (S)-4-(4-((4-((1-(2-(4-(4-chlorophenyl)-2,3,9-trimethyl-6H-thieno[3,2-f][1,2,4]triazolo[4,3-a][1,4]diazepin-6-yl)acetyl)piperidin-4-yl)methyl)piperazin-1-yl)methyl)phenyl)-5-(5-ethyl-2,4-dihydroxyphenyl)-N-isopropyl-4H-1,2,4-triazole-3-carboxamide, trifluoroacetic acid], the IC50 is under 100 nM.

As to `CCCc1cc(-c2nnc(O)n2-c2ccc(CN3CCN(CC4CCN(C(=O)C[C@@H]5N=C(c6ccc(Cl)cc6)c6c(sc(C)c6C)-n6c(C)nnc65)CC4)CC3)cc2)c(O)cc1O` [Compound 11, (S)-2-(4-(4-chlorophenyl)-2,3,9-trimethyl-6H-thieno[3,2-f][1,2,4]triazolo[4,3-a][1,4]diazepin-6-yl)-1-(4-((4-(4-(3-(2,4-dihydroxy-5-propylphenyl)-5-hydroxy-4H-1,2,4-triazol-4-yl)benzyl)piperazin-1-yl)methyl)piperidin-1-yl)ethan-1-one, trifluoroacetic acid], the IC50 is under 100 nM.

On to `Cc1sc2c(c1C)C(c1ccc(Cl)cc1)=N[C@@H](CC(=O)N1CCN(c3ccc(-n4c(O)nnc4-c4cc(C(C)C)c(O)cc4O)cc3)CC1)c1nnc(C)n1-2` [Compound 79, (S)-2-(4-(4-chlorophenyl)-2,3,9-trimethyl-6H-thieno[3,2-f][1,2,4]triazolo[4,3-a][1,4]diazepin-6-yl)-1-(4-(4-(3-(2,4-dihydroxy-5-isopropylphenyl)-5-hydroxy-4H-1,2,4-triazol-4-yl)phenyl)piperazin-1-yl)ethan-1-one], for which the IC50 is under 100 nM.

The record behind these values is US12540143B2, “Methods and compositions for targeted protein degradation” (Ranok Therapeutics (Hangzhou) Co. Ltd., priority 2019, dated 2026).
